Data from article PMC9630125 (Oncogene, 2022).

Target: Misshapen-like kinase 1 (MINK1) (Homo sapiens, UniProt Q8N4C8)
Test: ADP-Glo kinase assay with recombinant human MINK1, MBP substrate and ATP
Assay type: biochemical

Chain of Misshapen-like kinase 1 (MINK1) (Q8N4C8 whole entry): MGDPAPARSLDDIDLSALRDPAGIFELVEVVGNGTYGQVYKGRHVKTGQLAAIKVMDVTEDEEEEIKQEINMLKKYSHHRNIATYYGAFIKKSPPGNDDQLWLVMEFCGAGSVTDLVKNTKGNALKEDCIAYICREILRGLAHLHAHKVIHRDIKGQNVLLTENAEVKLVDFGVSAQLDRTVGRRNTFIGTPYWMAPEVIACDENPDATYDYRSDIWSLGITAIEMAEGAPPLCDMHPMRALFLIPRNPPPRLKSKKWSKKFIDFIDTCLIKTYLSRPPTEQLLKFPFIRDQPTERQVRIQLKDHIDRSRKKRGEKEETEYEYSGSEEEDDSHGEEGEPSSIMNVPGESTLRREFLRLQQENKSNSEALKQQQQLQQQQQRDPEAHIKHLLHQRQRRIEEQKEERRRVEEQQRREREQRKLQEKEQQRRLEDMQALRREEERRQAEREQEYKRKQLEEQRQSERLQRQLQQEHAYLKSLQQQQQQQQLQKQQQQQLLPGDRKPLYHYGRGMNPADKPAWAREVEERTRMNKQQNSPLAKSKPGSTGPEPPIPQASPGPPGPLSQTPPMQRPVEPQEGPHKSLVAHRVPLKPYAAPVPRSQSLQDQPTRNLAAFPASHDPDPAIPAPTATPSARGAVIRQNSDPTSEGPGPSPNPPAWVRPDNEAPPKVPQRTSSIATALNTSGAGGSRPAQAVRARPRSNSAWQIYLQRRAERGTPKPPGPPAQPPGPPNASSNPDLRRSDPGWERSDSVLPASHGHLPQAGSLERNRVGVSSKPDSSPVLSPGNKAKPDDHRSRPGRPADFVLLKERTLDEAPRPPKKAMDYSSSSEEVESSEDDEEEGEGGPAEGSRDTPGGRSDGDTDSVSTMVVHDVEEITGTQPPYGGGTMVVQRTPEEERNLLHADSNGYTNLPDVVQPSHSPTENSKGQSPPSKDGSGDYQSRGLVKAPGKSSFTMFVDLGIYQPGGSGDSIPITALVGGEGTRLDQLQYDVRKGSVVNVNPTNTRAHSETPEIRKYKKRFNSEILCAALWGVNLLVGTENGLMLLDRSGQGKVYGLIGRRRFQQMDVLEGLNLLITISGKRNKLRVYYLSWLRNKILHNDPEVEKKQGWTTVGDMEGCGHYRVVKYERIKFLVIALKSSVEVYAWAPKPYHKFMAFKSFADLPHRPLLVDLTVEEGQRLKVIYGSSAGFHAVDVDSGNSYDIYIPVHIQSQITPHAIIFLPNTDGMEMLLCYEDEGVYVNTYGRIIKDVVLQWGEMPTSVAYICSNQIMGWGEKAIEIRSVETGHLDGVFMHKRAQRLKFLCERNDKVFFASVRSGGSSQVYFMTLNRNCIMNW

**Q.** Which IC50 does the source give for `Cc1ccc(-n2nc(C(C)(C)C)cc2NC(=O)NCc2cc(F)ccc2Oc2ccc3c(cnn3CCO)c2)cc1` [pexmetinib] here?
**A.** 10 µM
